Reference: patent publication US20190015416A1, “BTK INHIBITORS FOR TREATING NEUROBLASTOMA” (The Chinese University of Hong Kong, priority 2017, published 2019)

Assays:
[1] = system: NBL-S cells; test: MTT proliferation assay; assay type: cell-based, human; settings: 48 hr treatment or transfection, normalized to DMSO
Experimental: (§1) FIGS. 5A-5G: BTK signaling regulates cell proliferation. […] MTT were performed to measure the cell viability, the absorbance of treated cell groups was normalized to that of DMSO treated cells. (FIGS. 5C, 5D) MTT assay of NBL-S or SH-SY5Y cells transfected with BTK (FIG. 5C) or BTK siRNA (FIG. 5D) at 48 hr after transfection. […] (FIG. 5E) NBL-S cells and SH-SY5Y cells were treated with the inhibitors either separately or the combinations as indicated, and the treated cells were collected at different time points for MTT assay. The absorbance of treated cell groups was normalized to that of control cells treated with DMSO.
(§2) Neuroblastoma cells were seeded in 96-well plates at a concentration of 5×10^3 per well. After siRNA transfection or inhibitor treatment for 48 hours, 10 ul MTT ([…]) is added into every well followed by incubation for 4 hours. The absorbance was measured at A570 nm.

[2] = system: SH-SY5Y cells; test: MTT proliferation assay; assay type: cell-based, human; settings: 48 hr treatment or transfection, normalized to DMSO
Experimental: as §1, §2

[3] = system: SH-SY5Y tumor xenograft; settings: SH-SY5Y xenograft in nude mice
Source text: SH-SY 5Y cells were inoculated into flanks of nude mice. Animals were randomly divided into four groups when tumor xenograft reached 100 mm^3. […] (FIG. 7B) Quantifications of the tumor xenografts weight. The data are expressed as mean values±S.D. (n=4 in each group). **P<0.01. […] Mean±SD values are presented. **p<0.01; *p<0.05. […] (FIG. 7D) Cell proliferations in tumor xenografts were elucidated by immunohistochemical (IHC) analysis with Ki67 antibody. Scale bar represents 50 μm. (FIG. 7E) Quantification of Ki-67-positive cells within the xenografts. Ki-67-positive cells were quantitated from 5 random fields of each tumor xenograft under the microscope (400×) using Image-Pro PLUS V6.0.0.260 software. The values were normalized to those from vehicle treated mice. The data were presented as mean values±S.D. (n=4). **p<0.01; *p<0.05. Apoptosis markers such as cleaved PARP and cleaved Caspase 3 in xenograft tumors were examined by Western blot. […] The signals densities were analyzed by Image J. The relative signals of cleavage PARP to total PARP, cleaved Caspase 3 to tubulin were normalized to those from vehicle treated mice.
Neuroblastoma xenografts in nude mice were established by injection of SH-SY5Y cells.

[4] = system: SH-SY5Y cells; test: Cell cycle distribution by flow cytometry; assay type: cell-based, human; settings: 24 hr, Ibrutinib 2.5 μM, NVP-TAE684 100 nM, Crizotinib 250 nM, control 64.90%

Row | SMILES | cell proliferation (MTT) [1] | cell proliferation (MTT) [2] | proliferation of neuroblastoma cells in vivo (Ki67 immunostaining) ([3]; 14 days treatment) | cell apoptosis in tumor xenograft (cleaved caspase 3 and PARP) ([3]; Western blot) | growth of neuroblastoma xenograft ([3]; intraperitoneal injection, 14 days) | cell portion at G0/G1 phase [4] [%]
1 | C[C@@H](Oc1cc(-c2cnn(C3CCNCC3)c2)cnc1N)c1c(Cl)ccc(F)c1Cl [Crizotinib] | can be inhibited | insensitive | inhibited proliferation | potentiated cell apoptosis | only moderately inhibited | 
2 | C=CC(=O)N1CCC[C@@H](n2nc(-c3ccc(Oc4ccccc4)cc3)c3c(N)ncnc32)C1 [Ibrutinib, 1-((R)-3-(4-amino-3-(4-phenoxyphenyl)-1H-pyrazolo[3,4-d]pyrimidin-1-yl)pi-peridin-1-yl)prop-2-en-1-one] |  |  |  |  |  | 73.8
3 | COc1cc(N2CCC(N3CCN(C)CC3)CC2)ccc1Nc1ncc(Cl)c(Nc2ccccc2S(=O)(=O)C(C)C)n1 [NVP-TAE684] | can be inhibited | can be inhibited |  |  |  | 
